Experimental data taken from patent US5770603A, “Quinazoline derivatives” (Zeneca Limited, priority 1996, dated 1998).
“And” between values parts separate entries of the source, which are not always exact repeats. Equal entries are not always repeated.

Experiments:
[1] = system: EGF receptor tyrosine kinase; conditions: Fry et al., Science, 1994, 265, 1093; cited from earlier work
[2] = system: human naso-pharyngeal cancer cell line KB; test: Test (b): in vitro inhibition of EGF-stimulated growth of the human naso-pharyngeal cancer cell line KB; format: cell-based; conditions: 72 h, EGF 10 ng/ml, 3 days incubation, MTT, example values stated as approximate
Experimental: (b) An in vitro assay which determines the ability of a test compound to inhibit the EGF-stimulated growth of the human naso-pharyngeal cancer cell line KB.
Cell growth was determined after incubation for 3 days by the extent of metabolism of MTT tetrazolium dye to furnish a bluish colour. Cell growth was then determined in the presence of EGF (10 ng/ml) or in the presence of EGF (10 ng/ml) and a test compound at a range of concentrations. An lC50 value could then be calculated.

[3] = target: T1, EGF receptor tyrosine kinase (Homo sapiens, UniProt P00533); test: Test (a): in vitro inhibition of the enzyme EGF receptor tyrosine kinase (partially purified from A-431 cells); format: biochemical; conditions: example values stated as approximate
T1 construct: Receptor tyrosine kinase was obtained in partially purified form from A-431 cells; endogenous in cells; host or cells: A-431 cells (human vulval carcinoma), Triton X-100 solubilised pelleted material
T1 sequence (P00533 25-1210): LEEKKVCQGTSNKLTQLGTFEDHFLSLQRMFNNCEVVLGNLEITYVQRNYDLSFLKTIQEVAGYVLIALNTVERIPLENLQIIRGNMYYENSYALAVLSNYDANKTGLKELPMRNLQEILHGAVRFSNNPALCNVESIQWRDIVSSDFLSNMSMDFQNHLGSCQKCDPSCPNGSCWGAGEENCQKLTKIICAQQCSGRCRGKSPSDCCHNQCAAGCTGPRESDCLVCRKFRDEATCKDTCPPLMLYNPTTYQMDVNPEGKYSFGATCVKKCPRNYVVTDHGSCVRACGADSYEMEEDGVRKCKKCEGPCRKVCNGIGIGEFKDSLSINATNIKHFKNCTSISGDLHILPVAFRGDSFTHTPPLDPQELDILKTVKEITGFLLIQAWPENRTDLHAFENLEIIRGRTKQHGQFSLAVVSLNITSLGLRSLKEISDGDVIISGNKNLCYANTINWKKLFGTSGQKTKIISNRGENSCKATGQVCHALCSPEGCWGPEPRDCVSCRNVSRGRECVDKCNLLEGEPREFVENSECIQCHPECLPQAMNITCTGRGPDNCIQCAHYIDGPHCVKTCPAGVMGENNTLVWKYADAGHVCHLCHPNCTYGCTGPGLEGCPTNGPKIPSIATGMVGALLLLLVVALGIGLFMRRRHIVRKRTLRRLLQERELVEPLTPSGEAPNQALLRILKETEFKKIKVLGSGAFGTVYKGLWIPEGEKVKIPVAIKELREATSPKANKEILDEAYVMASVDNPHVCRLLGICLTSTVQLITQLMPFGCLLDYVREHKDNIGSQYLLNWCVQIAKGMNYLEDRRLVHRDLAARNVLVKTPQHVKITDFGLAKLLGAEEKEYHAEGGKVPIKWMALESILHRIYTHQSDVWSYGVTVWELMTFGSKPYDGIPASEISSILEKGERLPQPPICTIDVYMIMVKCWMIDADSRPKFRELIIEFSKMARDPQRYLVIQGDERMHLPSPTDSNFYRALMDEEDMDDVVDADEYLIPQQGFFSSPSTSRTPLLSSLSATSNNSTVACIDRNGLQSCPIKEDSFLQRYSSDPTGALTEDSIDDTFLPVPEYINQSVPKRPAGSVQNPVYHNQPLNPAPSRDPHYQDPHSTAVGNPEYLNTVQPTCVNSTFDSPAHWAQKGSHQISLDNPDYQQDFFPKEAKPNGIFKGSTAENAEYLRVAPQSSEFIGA
Experimental: (a) An in vitro assay which determines the ability of a test compound to inhibit the enzyme EGF receptor tyrosine kinase. Receptor tyrosine kinase was obtained in partially purified form from A-431 cells (derived from human vulval carcinoma) by the procedures described below which are related to those described by Carpenter et al, J. Biol. Chem., 1979, 254, 4884, Cohen et al, J. Biol. Chem., 1982, 257, 1523 and by Braun et al., J. Biol. Chem., 1984, 259, 2051.
A-431 cells were grown to confluence using Dulbecco's modified Eagle's medium (DMEM) containing 5% fetal calf serum (FCS). The obtained cells were homogenised in a hypotonic borate/EDTA buffer at pH 10.1. The homogenate was centrifuged at 400 g for 10 minutes at 0°-4° C. The supernatant was centrifuged at 25,000 g for 30 minutes at 0°-4° C. The pelleted material was suspended in 30 mM Hepes buffer at pH 7.4 containing 5% glycerol, 4 mM benzamidine and 1% Triton X-100, stirred for 1 hour at 0°-4° C., and recentrifuged at 100,000 g for 1 hour at 0°-4° C. The supernatant, containing solubilised receptor tyrosine kinase, was stored in liquid nitrogen.
For test purposes 40 μl of the enzyme solution so obtained was added to a mixture of 400 μl of a mixture of 150 mM Hepes buffer at pH 7.4, 500 μM sodium orthovanadate, 0.1% Triton X-100, 10% glycerol, 200 μl water, 80 μl of 25 mM DTT and 80 μl of a mixture of 12.5 mM manganese chloride, 125 mM magnesium chloride and distilled water. There was thus obtained the test enzyme solution.
Equal volumes of this solution and a solution of epidermal growth factor (EGF; 20 μg/ml) were mixed.
[y-^32 P]ATP (3000 Ci/mM, 250 μCi) was diluted to a volume of 2 ml by the addition of a solution of ATP (100 μM) in distilled water. An equal volume of a 4 mg/ml solution of the peptide […]in a mixture of 40 mM Hepes buffer at pH 7.4, 0.1% Triton X-100 and 10% glycerol was added.
The test compound/EGF mixture solution (5 μl) was added to the test enzyme solution (10 μl) and the mixture was incubated at 0°-4° C. for 30 minutes. The ATP/peptide mixture (10 μl) was added and the mixture was incubated at 25° C. for 10 minutes. The phosphorylation reaction was terminated by the addition of 5% trichloroacetic acid (40 μl) and bovine serum albumin (BSA; 1 mg/ml, 5 μl). The mixture was allowed to stand at 4° C. for 30 minutes and then centrifuged. An aliquot (40 μl) of the supernatant was placed onto a strip of Whatman p 81 phosphocellulose paper. The strip was washed in 75 mM phosphoric acid (4×10 ml) and blotted dry. Radioactivity present in the filter paper was measured using a liquid scintillation counter (Sequence A). The reaction sequence was repeated in the absence of the EGF (Sequence B) and again in the absence of the test compound (Sequence C).
Receptor tyrosine kinase inhibition was calculated as follows: [formula]

[4] = system: xenografts of the human vulval epidermoid carcinoma cell line A-431; test: Test (c): in-vivo inhibition of growth of A-431 xenografts in athymic nude mice; set-up: species or system human (xenograft in athymic nude mice); conditions: Mus musculus, daily dosing, usually oral, tumour volume inhibition relative to untreated controls
Experimental: (c) An in-vivo assay in a group of athymic nude mice (strain ONU:Alpk) which determines the ability of a test compound (usually administered orally as a ball-milled suspension in 0.5% polysorbate) to inhibit the growth of xenografts of the human vulval epidermoid carcinoma cell line A-431. A-431 cells were maintained in culture in DMEM supplemented with 5% FCS nd 2 mM glutamine. Freshly cultured cells were harvested by trypsinization and injected subcutaneously (10 million cells/0.1 ml/mouse) into both flanks of a number of donor nude mice. When sufficient tumour material was available (after approximately 9 to 14 days), fragments of tumour tissue were transplanted in the flanks of recipient nude mice (test day 0). […] In some studies the dosing of the test compound was continued beyond test day 19, for example to test day 26. In each case, on the following test day the animals were killed and the final tumour volume was calculated from measurements of the length and width of the tumours. Results were calculated as a percentage inhibition of tumour volume relative to untreated controls.

[5] = system: carcinoma which does not express EGF receptor tyrosine kinase; conditions: carcinoma not expressing EGF receptor tyrosine kinase; Toi et al., 1990; cited from earlier work
[6] = system: transplanted human mammary carcinoma which expresses EGF receptor tyrosine kinase; conditions: athymic nude mice; EGF receptor tyrosine kinase expressing; Toi et al., 1990; cited from earlier work

For `COc1cc2ncnc(Nc3cccc(Br)c3)c2cc1OC` [4-(3'-bromoanilino)-6,7-dimethoxyquinazoline], the “inhibitor of EGF receptor tyrosine kinase (in words)” value [1] is given as “highly potent inhibitor”.

Compound `COc1cc2ncnc(Nc3ccc(F)c(Cl)c3)c2cc1OCC1OCCO1` [Example 2, 4-(3'-chloro-4'-fluoroanilino)-6-(1,3-dioxolan-2-ylmethoxy)-7-methoxyquinazoline] has an IC50 [2] of 0.2 µM and an IC50 [3] of 0.01 µM.

`COc1cc2ncnc(Nc3ccc(F)c(Cl)c3)c2cc1OCCC1OCCO1` [Example 3, 4-(3'-chloro-4'-fluoroanilino)-6-[2-(1,3-dioxolan-2-yl)ethoxy]-7-methoxyquinazoline] gave an IC50 [2] of 0.33 µM, an IC50 [3] of 0.01 µM and an ED50 [4] of roughly 50 mg/kg.

Work on `COc1cc2ncnc(Nc3ccc(F)c(Cl)c3)c2cc1OCCCC1OCCO1` [Example 4, 4-(3'-chloro-4'-fluoroanilino)-6-[3-(1,3-dioxolan-2-yl)propoxy]-7-methoxyquinazoline] yielded an IC50 [2] of 0.14 µM and an IC50 [3] of 0.04 µM.

With `COc1cc2ncnc(Nc3ccc(F)c(Cl)c3)c2cc1OCC1COCO1` (stereo not shown) [Example 5, 4-(3'-chloro-4'-fluoroanilino)-6-(1,3-dioxolan-4-ylmethoxy)-7-methoxyquinazoline] the IC50 [2] was 0.14 µM and the IC50 [3] was 0.015 µM.

Compound `COc1cc2ncnc(Nc3ccc(F)c(Cl)c3)c2cc1OCCC1OCCCO1` [Example 8, 4-(3'-chloro-4'-fluoroanilino)-6-[2-(1,3-dioxan-2-yl)ethoxy]-7-methoxyquinazoline] has an IC50 [2] of 0.04 µM and an IC50 [3] of 0.005 µM.

For `COc1cc2ncnc(Nc3ccc(F)c(Cl)c3)c2cc1OCC1(C)COC1` [Example 10, 4-(3'-chloro-4'-fluoroanilino)-7-methoxy-6-(3-methyloxetan-3-ylmethoxy)quinazoline], the IC50 [2] was 0.065 µM and the IC50 [3] was 0.01 µM and 0.034 µM.

For `O=CN/C=C/c1cc(O)ccc1O` [erbstatin], the “growth of another carcinoma (in words)” value [5] is given as “without effect on the growth” and the “growth of transplanted human mammary carcinoma (in words)” value [6] is given as “specifically attenuates the growth”.
